Laboratory results: patent publication US20230096028A1, “BICYCLIC HETEROCYCLYL COMPOUNDS AND USES THEREOF” (Revolution Medicines, Inc., priority 2019, published 2023)
Like-named read-outs stand apart in the source and are kept apart here.

Key:
[1] = test system: PC-9 cells (EGFR Ex19Del); assay: Potency Assay: pERK (SOS1 pERK IC50 Assay, AlphaLISA SureFire Ultra p-ERK1/2); type: cell-based; settings: Homo sapiens, read-out: SOS1 pERK IC50
Procedure: The purpose of this assay is to measure the ability of test compounds to inhibit SOS1 function in cells. SOS1 activates RAS proteins by catalyzing the conversion of RAS GDP to RAS GTP in response to receptor tyrosine kinase activation. […] The procedure described below measures the level of cellular pERK in response to test compounds in PC-9 cells (EGFR Ex19Del).
PC-9 cells were grown and maintained using media and procedures recommended by the ATCC. On the day prior to compound addition, cells were plated in 384-well cell culture plates (40 μL/well) and grown overnight in a 37° C., 5% CO2 incubator. Test compounds were prepared in 10, 3-fold dilutions in DMSO, with a top concentration of 10 mM. On the day of the assay, 40 nL of test compound was added to each well of cell culture plate using an Echo550 liquid handler (LabCyte). Concentrations of test compound were tested in duplicate with highest test concentration being 10 μM. After compound addition, cells were incubated for 1 hour at 37° C., 5% CO2. Following incubation, culture medium was removed and cells were washed once with phosphate buffered saline.
Cellular pERK level was determined using the AlphaLISA SureFire Ultra p-ERK1/2 Assay Kit (PerkinElmer). Cells were lysed in 25 μL lysis buffer, with shaking at 600 RPM at room temperature for 15 minutes. Lysate (10 μL) was transferred to a 384-well Opti-plate (PerkinElmer) and 5 μL acceptor mix was added. The plate was centrifuged at 1000 RPM for 1 minute, and incubated in the dark for 2 hours. Following this incubation, 5 μL of donor mix was added, the plate was sealed and centrifuged at 1000 RPM for 1 minute, and the mixture was incubated for 2 hours at room temperature. Signal was read on an Envision plate reader (PerkinElmer) using standard AlphaLISA settings. Analysis of raw data was carried out in Excel (Microsoft) and Prism (GraphPad). Signal was plotted vs. the decadal logarithm of compound concentration, and IC50 was determined by fitting a 4-parameter sigmoidal concentration response model.

[2] = molecular target: T1, SOS1 catalytic domain (residues 564-1049) (Homo sapiens, UniProt Q07889); assay: Mode of Action Assay: inhibition of SOS1 nucleotide exchange activity (SOS1 TR-FRET IC50 Assay)
T1 sequence (Q07889 564-1049): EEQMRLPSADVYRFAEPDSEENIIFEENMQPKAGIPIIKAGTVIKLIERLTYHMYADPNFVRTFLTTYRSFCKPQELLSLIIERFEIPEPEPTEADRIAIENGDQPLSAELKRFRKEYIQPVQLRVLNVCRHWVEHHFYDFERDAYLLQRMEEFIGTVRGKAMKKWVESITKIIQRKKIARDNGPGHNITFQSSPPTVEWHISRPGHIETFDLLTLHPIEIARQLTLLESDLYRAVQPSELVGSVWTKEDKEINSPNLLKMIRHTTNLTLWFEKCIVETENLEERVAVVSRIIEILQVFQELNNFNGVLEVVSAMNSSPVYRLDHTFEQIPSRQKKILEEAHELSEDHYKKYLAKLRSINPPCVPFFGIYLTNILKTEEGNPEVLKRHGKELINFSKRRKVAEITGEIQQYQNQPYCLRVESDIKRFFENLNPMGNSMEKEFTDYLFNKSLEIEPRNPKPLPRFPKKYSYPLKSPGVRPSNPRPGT

[3] = PC-9 cells (EGFR Ex19Del), 1 hour incubation, AlphaLISA p-ERK1/2

| Structure (SMILES) | IC50 [1, 3] [nM] | IC50 [2] [nM] | IC50 ([1]; PC-9, 1 h) [nM] |
| --- | --- | --- | --- |
| C[C@@H](Nc1nc(Cl)nc2c1CN(C(=O)C13CC(C)(C1)OC31COC1)CC2)c1cc(N)cc(C(F)(F)F)c1 [Example 210] | > 1000 | > 1000 | – |
| CC(Nc1nc(Cl)nc2c1CN(C(=O)N1CCOCC1)C2)c1nccc(C(F)F)c1F (stereo not shown) [Example 521, 2-chloro-N-{1-[4-(difluoromethyl)-3-fluoropyridin-2-yl]ethyl}-6-(morpholine-4-carbonyl)-5H,6H,7H-pyrrolo[3,4-d]pyrimidin-4-amine] | – | > 1000 | > 1000 |
| CC(Nc1nc(Cl)nc2c1CN(C(=O)N1CCOCC1)C2)c1ccc(-c2ccccc2)s1 (stereo not shown) [Example 532, [2-chloro-4-[1-(5-phenyl-2-thienyl)ethylamino]-5,7-dihydropyrrolo[3,4-d]pyrimidin-6-yl]-morpholino-methanone] | – | > 1000 | > 1000 |
| C[C@@H](Nc1ncnc2c1CN(C1CCOCC1)C(=O)N2C)c1cc(N)cc(C(F)(F)F)c1 [Example 176, (R)-5-((1-(3-amino-5-(trifluoromethyl)phenyl)ethyl)amino)-1-methyl-3-(tetrahydro-2H-pyran-4-yl)-3,4-dihydropyrimido[4,5-d]pyrimidin-2(1H)-one] | < 1000 | < 1000 | – |
| C[C@@H](Nc1nc(Cl)nc2c1CN(C(=O)c1cccc(Cl)n1)CC2)c1cc(N)cc(C(F)(F)F)c1 [Example 252] | > 1000 | > 1000 | – |
| C[C@@H](Nc1nc(Cl)nc2c1CN(C(=O)[C@]13COC[C@H]1CS(=O)(=O)C3)CC2)c1cc(N)cc(C(F)(F)F)c1 [Example 215] | > 1000 | > 1000 | – |
| C[C@@H](Nc1nc(Cl)nc2c1CN(C(=O)C1OCCN(C)C1=O)C2)c1cccc(C(F)F)c1F (stereo partly shown) [Example 301] | < 1000 | < 1000 | – |
| C[C@@H](Nc1nc(Cl)nc2c1CN(C(=O)C1CNC1)C2)c1cc(N)cc(C(F)(F)F)c1 [Example 268] | > 1000 | < 1000 | – |
| C[C@@H](Nc1nc(Cl)nc2c1CN(C(=O)N1CCOCC1)C2)c1cccc(C(F)(F)COC2CC2)c1 [Example 531, [2-chloro-4-[[(1R)-1-[3-[2-(cyclopropoxy)-1,1-difluoro-ethyl]phenyl]ethyl]amino]-5,7-dihydropyrrolo[3,4-d]pyrimidin-6-yl]-morpholino-methanone] | – | < 1000 | < 1000 |
| C[C@@H](Nc1nc(Cl)nc2c1CN(C(=O)N1CCOCC1)C2)c1cccc(NC2CC2)c1 [Example 520, 2-chloro-N-[(1R)-1-[3-(cyclopropylamino)phenyl]ethyl]-6-(morpholine-4-carbonyl)-5H,6H,7H-pyrrolo[3,4-d]pyrimidin-4-amine] | – | > 1000 | > 1000 |
| COC1CCC(C(=O)N2CCc3nc(Cl)nc(N[C@H](C)c4cc(N)cc(C(F)(F)F)c4)c3C2)C1 (stereo partly shown) [Example 199] | > 1000 | > 1000 | – |
| COC1CN([C@@H]2CCc3ncnc(N[C@H](C)c4cccc(C(F)F)c4F)c3C2)C1 [Example 443] | > 1000 | > 1000 | – |
| C[C@@H](Nc1nc(Cl)nc2c1CN(C(=O)C13CC(C1)C3)CC2)c1cc(N)cc(C(F)(F)F)c1 [Example 211] | > 1000 | > 1000 | – |
| COc1ccc(C(=O)N2CCc3nc(Cl)nc(N[C@H](C)c4cc(N)cc(C(F)(F)F)c4)c3C2)nc1 [Example 245] | > 1000 | > 1000 | – |
| CC(Nc1nc(Cl)nc2c1CN(C(=O)N1CCOCC1)C2)c1cc(C(F)(F)F)ccn1 (stereo not shown) [Example 472, 2-chloro-6-(morpholine-4-carbonyl)-N-{1-[4-(trifluoromethyl)pyridin-2-yl]ethyl}-5H,6H,7H-pyrrolo[3,4-d]pyrimidin-4-amine] | > 1000 | > 1000 | – |
| CC(O)c1cccc(C(C)Nc2ncnc3c2CN(C(=O)N2CCOCC2)C3)c1 (stereo not shown) [Example 516] | > 1000 | > 1000 | – |

| Structure (SMILES) | IC50 [1, 3] [nM] | IC50 [2] [nM] | IC50 ([1]; PC-9, 1 h) [nM] |
| --- | --- | --- | --- |
| CC(Nc1nc(Cl)nc2c1CN(C(=O)N1CCOCC1)C2)c1cc(N)c(F)c(C(F)(F)F)c1 (stereo not shown) [Example 533, [4-[1-[3-amino-4-fluoro-5-(trifluoromethyl)phenyl]ethylamino]-2-chloro-5,7-dihydropyrrolo[3,4-d]pyrimidin-6-yl]-morpholino-methanone] | < 1000 | > 1000 | – |
| C[C@@H](Nc1nc(Cl)nc2c1CN(C1CNC1)CC2)c1cccc(C(F)(F)F)c1 [Example 177, (R)-6-(azetidin-3-yl)-2-chloro-N-(1-(3-(trifluoromethyl)phenyl)ethyl)-5,6,7,8-tetrahydropyrido[4,3-d]pyrimidin-4-amine] | > 1000 | < 1000 | – |
| C[C@@H](Nc1nc(Cl)nc2c1CN(C(=O)N1CCOCC1)C2)c1cccc(C(F)(F)F)n1 [Example 473, 2-chloro-6-(morpholine-4-carbonyl)-N-[(1R)-1-[6-(trifluoromethyl)pyridin-2-yl]ethyl]-5H,6H,7H-pyrrolo[3,4-d]pyrimidin-4-amine] | > 1000 | > 1000 | – |
| C[C@@H](Nc1nc(Cl)nc2c1CN(C(=O)c1cncc(N3CCOCC3)n1)CC2)c1cc(N)cc(C(F)(F)F)c1 [Example 243] | > 1000 | > 1000 | – |
| C[C@@H](Nc1nc(Cl)nc2c1CN(C(=O)C1CCC1)CC2)c1cc(N)cc(C(F)(F)F)c1 [Example 209] | > 1000 | > 1000 | – |
| CC(Nc1nc(Cl)nc2c1CN(C(=O)N1CCOCC1)C2)c1cccc2c1C[C@H](CO)C2 (stereo in doubt) [Example 464, (2-chloro-4-(((R)-1-((R)-2-(hydroxymethyl)-2,3-dihydro-1H-inden-4-yl)ethyl)amino)-5,7-dihydro-6H-pyrrolo[3,4-d]pyrimidin-6-yl)(morpholino)methanone] | > 1000 | < 1000 | – |
| Cc1nc2c(c(N[C@H](C)c3cc(N)cc(C(F)(F)F)c3)n1)CN(C(=O)C1CCN(C)CC1)C2 [Example 109, [4-[[(1R)-1-[3-amino-5-(trifluoromethyl)phenyl]ethyl]amino]-2-methyl-5,7-dihydropyrrolo[3,4-d]pyrimidin-6-yl]-(1-methyl-4-piperidyl)methanone] | – | < 1000 | > 1000 |
| C[C@@H](Nc1nc(Cl)nc2c1CN(C(=O)C13COCC(CO1)C3)C2)c1cc(N)cc(C(F)(F)F)c1 (stereo partly shown) [Example 273] | < 1000 | < 1000 | – |
| CC(Nc1nc(Cl)nc2c1CN(C(=O)N1CCOCC1)C2)c1cccc(S(C)(=O)=O)c1 (stereo not shown) [Example 497] | > 1000 | > 1000 | – |
| CC(CO)c1cccc(C(C)Nc2nc(Cl)nc3c2CN(C(=O)N2CCOCC2)C3)c1 (stereo not shown) [Example 500, 2-[3-(1-{[2-Chloro-6-(morpholine-4-carbonyl)-5H,6H,7H-pyrrolo[3,4-d]pyrimidin-4-yl]amino}ethyl)phenyl]propan-1-ol] | > 1000 | < 1000 | – |
| CC(Nc1nc(Cl)nc2c1CN(C(=O)N1CCOCC1)C2)c1cccc2c1C[C@@H](CO)C2 (stereo in doubt) [Example 465, (2-chloro-4-(((R)-1-((S)-2-(hydroxymethyl)-2,3-dihydro-1H-inden-4-yl)ethyl)amino)-5,7-dihydro-6H-pyrrolo[3,4-d]pyrimidin-6-yl)(morpholino)methanone] | > 1000 | > 1000 | – |
| C[C@@H](Nc1nc(Cl)nc2c1CN(C(=O)[C@@H]1COC[C@@H]1N)C2)c1cccc(C(F)F)c1F [Example 308] | > 1000 | < 1000 | – |
| C[C@@H](Nc1nc(Cl)nc2c1CN(C(=O)C1(C#N)CCC1)CC2)c1cc(N)cc(C(F)(F)F)c1 [Example 202] | > 1000 | > 1000 | – |
| C[C@@H](Nc1nc(Cl)nc2c1CN(C(=O)C13CCC(CC1)O3)CC2)c1cc(N)cc(C(F)(F)F)c1 [Example 218] | > 1000 | > 1000 | – |
| COC1(C(=O)N2CCc3nc(Cl)nc(N[C@H](C)c4cc(N)cc(C(F)(F)F)c4)c3C2)CCCOC1 (stereo partly shown) [Example 224] | > 1000 | > 1000 | – |
| CC(C)OC1(C(=O)N2CCc3nc(Cl)nc(N[C@H](C)c4cc(N)cc(C(F)(F)F)c4)c3C2)CCOC1 (stereo partly shown) [Example 195] | > 1000 | > 1000 | – |
